Test results taken from patent publication US11590116B2 (THERAVANCE BIOPHARMA R&D IP, LLC, priority 2019, dated 2023).

Assays:
[1] = molecular target: T1, recombinant human ALK5 (TGF-βR1) protein (Homo sapiens, UniProt P36897); test: Biochemical ALK5 (TGF-βR1) assay to measure pKi (LANCE Ultra ULight kinase assay); settings: apparent pKi from pIC50 by Cheng-Prusoff, read-out: ALK5 pKi (converted)
T1 construct: purchased Life Technologies PR9075A
T1 sequence (P36897 34-503): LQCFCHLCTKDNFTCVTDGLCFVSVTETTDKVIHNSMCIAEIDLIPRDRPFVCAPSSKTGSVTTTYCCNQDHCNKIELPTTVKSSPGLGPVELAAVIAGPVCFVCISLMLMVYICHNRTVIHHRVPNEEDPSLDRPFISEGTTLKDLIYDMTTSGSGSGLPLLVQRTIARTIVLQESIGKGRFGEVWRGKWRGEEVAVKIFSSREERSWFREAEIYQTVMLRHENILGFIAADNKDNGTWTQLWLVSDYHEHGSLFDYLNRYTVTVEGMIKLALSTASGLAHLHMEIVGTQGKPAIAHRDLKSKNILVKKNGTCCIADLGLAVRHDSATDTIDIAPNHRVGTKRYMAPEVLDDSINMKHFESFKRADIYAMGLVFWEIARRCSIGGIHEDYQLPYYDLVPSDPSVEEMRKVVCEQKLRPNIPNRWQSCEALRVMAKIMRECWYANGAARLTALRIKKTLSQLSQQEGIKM
How it was run: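 Compounds (10 μM to 25 pM) preincubated 60 minutes at room temperature with enzyme, then reaction run 60 minutes at 37° C with ATP added as 125 μM (5× final). Stopped with EDTA plus Eu-anti-phospho-Topoisomerase 2-alpha (Thr1342) antibody, TR-FRET read at 665 nm; pIC50 converted to pKi via Cheng-Prusoff.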

[2] = tested on: TGF-β-stimulated SMAD3 phosphorylation in BEAS-2B cells; test: Cellular ALK5 potency assay, inhibition of TGF-β stimulated pSMAD3 formation in BEAS-2B cells; format: cell-based; settings: Homo sapiens; inhibition of TGF-β stimulated pSMAD3 formation, BEAS-2B cells; read-out: BEAS2B pIC50 (converted)
How it was run: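 SMAD3 phosphorylation was measured by AlphaLISA after 30 min TGF-β stimulation (10 ng/mL final) of BEAS-2B cells preincubated 1 h with compound at 37 °C. Results given as pIC50.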

## CC(C)N1CCN(CCNc2cnc3ccc(-c4c[nH]nc4-c4cccc(C(F)F)n4)nc3c2)CC1 [Compound 226, 6-[3-[6-(difluoromethyl)-2-pyridyl]-1H-pyrazol-4-yl]-N-[2-(4-isopropylpiperazin-1-yl)ethyl]-1,5-naphthyridin-3-amine]
[1]
  Ki: 0.0398 to 0.316 nM
[2]
  IC50: 25.1 to 158 nM

## Cc1cccc(-c2[nH]cnc2-c2ccc3ncc(-c4ncc(C(=O)O[C@@H]5CCNC5)cn4)cc3c2)n1 [Compound 1079, [(3R)-pyrrolidin-3-yl] 2-[6-[5-(6-methyl-2-pyridyl)-1H-imidazol-4-yl]-3-quinolyl]pyrimidine-5-carboxylate]
[1]
  Ki: 0.0398 to 0.316 nM
[2]
  IC50: 25.1 to 158 nM

## CNC(=O)[C@H]1CN(c2cnc3ccc(-c4nc[nH]c4-c4cccc(C)n4)cc3c2)CCN1 [Compound 376, (2R)-N-methyl-4-[6-[5-(6-methyl-2-pyridyl)-1H-imidazol-4-yl]-3-quinolyl]piperazine-2-carboxamide]
[1]
  Ki: 0.0398 to 0.316 nM
[2]
  IC50: 200 to 1260 nM

## Cc1nc(-c2n[nH]cc2-c2ccc3ncc(-c4cnc5n4CCNC5)cc3n2)ccc1F [Compound 245, 2-[3-(5-fluoro-6-methyl-2-pyridyl)-1H-pyrazol-4-yl]-7-(5,6,7,8-tetrahydroimidazo[1,2-a]pyrazin-3-yl)-1,5-naphthyridine]
[1]
  Ki: 0.0398 to 0.316 nM
[2]
  IC50: 25.1 to 158 nM

## Cc1cccc(-c2[nH]cnc2-c2ccc3ncc(N4CCCNCC4)cc3n2)n1 [Compound 307, 7-(1,4-diazepan-1-yl)-2-(5-(6-methylpyridin-2-yl)-1H imidazol-4-yl)-1,5-naphthyridine]
[1]
  Ki: 0.0398 to 0.316 nM
[2]
  IC50: 25.1 to 158 nM

## Cc1cccc(-c2n[nH]cc2-c2ccc3ncc(-c4nc5n(n4)CCNC5)cc3c2)n1 [Compound 315, 6-[3-(6-methyl-2-pyridyl)-1H-pyrazol-4-yl]-3-(5,6,7,8-tetrahydro-[1,2,4]triazolo[1,5-a]pyrazin-2-yl)quinoline]
[1]
  Ki: 0.0398 to 0.316 nM
[2]
  IC50: 25.1 to 158 nM

## COC(=O)C1CN(CCNc2cnc3ccc(-c4c[nH]nc4-c4cccc(C)n4)nc3c2)CCN1 (centres unmarked) [Compound 137, methyl 4-[2-[[6-[3-(6-methyl-2-pyridyl)-1H-pyrazol-4-yl]-1,5-naphthyridin-3-yl]amino]ethyl]piperazine-2-carboxylate]
[1]
  Ki: 0.0398 to 0.316 nM
[2]
  IC50: 1580 to 10000 nM

## Cc1cccc(-c2n[nH]cc2-c2ccc3ncc(-c4cnn(CCN5CCCC5=O)c4)cc3n2)n1 [Compound 571, 1-[2-[4-[6-[3-(6-methyl-2-pyridyl)-1H-pyrazol-4-yl]-1,5-naphthyridin-3-yl]pyrazol-1-yl]ethyl]pyrrolidin-2-one]
[1]
  Ki: < 0.0316 nM
[2]
  IC50: 25.1 to 158 nM

## Cc1cccc(-c2[nH]cnc2-c2ccc3ncc(N4CCC(NC(=O)[C@@H]5CCCN5)CC4)cc3c2)n1 [Compound 388, (2S)-N-[1-[6-[5-(6-methyl-2-pyridyl)-1H-imidazol-4-yl]-3-quinolyl]-4-piperidyl]pyrrolidine-2-carboxamide]
[1]
  Ki: 0.0398 to 0.316 nM
[2]
  IC50: 200 to 1260 nM

## Cc1cccc(-c2n[nH]cc2-c2ccc3nccc(N4CCNCC4)c3c2)n1 [Compound 868, 6-[3-(6-methyl-2-pyridyl)-1H-pyrazol-4-yl]-4-piperazin-1-yl-quinoline]
[1]
  Ki: 0.398 to 3.16 nM
[2]
  IC50: 25.1 to 158 nM

## Cc1cccc(-c2[nH]cnc2-c2ccc3ncc(C4CCC(N)CC4)cc3c2)n1 (centres unmarked) [Compound 142, 4-[6-[5-(6-methyl-2-pyridyl)-1H-imidazol-4-yl]-3-quinolyl]cyclohexanamine]
[1]
  Ki: 0.398 to 3.16 nM
[2]
  IC50: 25.1 to 158 nM

## Cc1cccc(-c2nnn(Cc3ccccc3)c2-c2ccc3ncc(N4CCC(N5CCN(C)CC5)CC4)cc3n2)n1 [Compound 475, 2-[3-benzyl-5-(6-methyl-2-pyridyl)triazol-4-yl]-7-[4-(4-methylpiperazin-1-yl)-1-piperidyl]-1,5-naphthyridine]
[1]
  Ki: 0.0398 to 0.316 nM
[2]
  IC50: 200 to 1260 nM

## CNCCn1cc(-c2cnc3ccc(-c4c(-c5cccc(C)n5)[nH]c5ncccc45)cc3c2)cn1 [Compound 306, N-methyl-2-(4-(6-(2-(6-methylpyridin-2-yl)-1H-pyrrolo[2,3-b]pyridin-3-yl)quinolin-3-yl)-1H-pyrazol-1-yl)ethan-1-amine]
[1]
  Ki: < 0.0316 nM
[2]
  IC50: 25.1 to 158 nM
